Measurements from patent US20240285631A1, “METHODS OF TREATING VASCULAR MALFORMATIONS” (priority 2023, published 2024).

Key:
VEGF-A signaling = experiment: VEGF-A-induced AKT phosphorylation in Alk1 siRNA-silenced HUVECs; format: cell-based, human; conditions: treated or not with Palbociclib
Excerpt: (§1) Next, we treated HUVECs with Alk1 siRNA to silence Alk1 and test the VEGF-A-induced response, with or without Palbociclib treatment, using pAKT activation as a readout.

[1] = system: retinal arteries of anti-BMP9/10-treated animals; experiment: Arteriovenous identity immunostaining (JAGGED1, aSMA, ENDOMUCIN) of retinal flat-mounts, BMP9/10 Abs model; format: in vivo, mouse; conditions: P7
Excerpt: FIG. 12A illustrates the timeline used for BMP9/10 Abs and CDK4/6i treatments in C57bl/6 pups. FIGS. 12B-F JAGGED1 (green) and IB4 (white) in (FIG. 12B), aSMA (green) and IB4 (white) staining in (FIG. 12D) and ENDOMUCIN (green) and IB4 (white) in (FIG. 12F) of retinal flat-mounts from control, BMP9/10 Abs-treated, BMP9/10 Abs- and CDK4/6i-treated P7 C57bl/6 animals. (A: artery; V: vein; white arrow heads: AVMs). Quantification of JAGGED1 fluorescence intensity in retinal arterial ECs (FIG. 12C), of aSMA arterial coverage (FIG. 12E) and ENDOMUCIN in retinal arteries (FIG. 12G) (N=4 animals/group, 10 to 14 region of interest analyzed/group. Data are mean±SEM, one-way ANOVA with Holm-Sidak's multiple comparison test, ns p>0.05; ***p<0.01). Scale bars: […].
Finally, we assessed the effects of Palbociclib treatment on arteriovenous identity in anti-BMP9/10-treated animals following the dosing protocol shown in FIG. 12A. […] Finally, ENDOMUCIN, which is enriched in veins and capillaries in control retinas, was ectopically expressed in arteries and AV shunts in the retinal vasculature of anti-BMP9/10-treated animals, compared to controls (FIGS. 12F and 12G).
Eyes from P7 pups were pre-fixed in 4% PFA for 20 min at room temperature (RT). The retinas were dissected out and permeabilized for 30 min at RT in 0.5% Triton X-100 and then incubated with antibodies in retina buffer (1% FBS, 3% BSA and 0.5% Triton X-100 in PBS1x) overnight at 4° C. Retinas were washed with PBS1X and incubated with secondary antibodies in retina buffer for 2 h at RT. Retinas were washed with PBS1X, mounted with DAKO mounting medium (DAKO) and imaged using confocal microscopy (LEICA SP8 and LASX software). Quantification of vascular progression, density, AVM numbers and vessel diameters in the retinal vasculature were performed with Image J software.

[2] = system: Retinoblastoma protein (Rb); experiment: Western Blot of Rb Ser 807/811 phosphorylation in HUVECs; format: cell-based, human; conditions: 24 h
Description: FIG. 11B illustrates Western Blot analysis of Rb Ser 807/811 phosphorylation in response to Palbociclib (CDK4/6i) (24 h) in HUVECs.
Primary Human Umbilical Vein Endothelial Cells (HUVECs) were purchased from Lonza (C2519AS) and cultured in EGM™2-Bulletkit™ medium (CC-3156 & CC-4176, Lonza). For VEGF-A- or BMP9-induced signaling response in HUVECs, cells (70% confluent) were treated with Palbociclib (3 mg/ml, CDK4/6i) for 12 h in EGM-2 medium prior to starvation overnight in EMB-2 media (CC-3162 Lonza) supplemented with 0.1% FBS and Palbociclib (3 mg/ml). Cells were stimulated with either VEGF-A (25 ng/ml for 15 min) or BMP9 (1 ng/ml for 2 h) and harvested for Western Blot analysis.
Cells were lysed in RIPA buffer (Abcam, ab206996) and equal amounts of proteins were separated on 4-15% gradient Criterion precast gels (Bio-Rad 567-1084). Proteins were then transferred onto nitrocellulose membranes (Bio-Rad). Western Blots were developed with chemiluminescence HRP substrate (Radiance plus, Azure Biosystems AC2103) on a digital image analyzer, Azure Imager c300.

BMP9 signaling = experiment: Western Blot of BMP9-induced signaling in HUVECs; format: cell-based, human; conditions: Palbociclib pre-treatment
Description: FIG. 8A illustrates Western Blot analysis of the phosphorylation of the indicated proteins in response to VEGF-A (1.5 nM) in control vs. CDK4/6i treated HUVECs. FIG. 8B illustrates Western Blot analysis of the phosphorylation of the indicated proteins in response to BMP9 (10 ng/ml) in control vs. CDK4/6i-treated HUVECs. FIG. 8C illustrates quantification of phosphorylation normalized to total protein levels. (N=5 independent experiments, Data are mean±SEM, Mann-Whitney U test: *p<0.05). […] FIG. 8E illustrates ENDOGLIN (green) and IB4 (white) staining of retinal flat-mounts from P5 Alk1^fl/fl, Alk1^fl/fl treated with CDK4/6i, Alk1EC^iKO, and Alk1EC^iKO treated with CDK4/6i animals (A: Artery; V: Vein). FIG. 8F illustrates quantification of fluorescence intensity of ENDOGLIN staining in (FIG. 8E) retinal venous vessels of the indicated animals (N=4 retinas per group. Data are mean±SEM, one-way ANOVA with Tukey's multiple comparison test: *p<0.05; ns p>0.05). FIG. 8G illustrates timeline used for Tx injection, and CDK4/6i and FLT1 blocking antibody treatment of Alk1EC^iKO pups. […]
as §1

[3] = system: retinal ECs in veins and arteries; experiment: Flow-mediated EC polarization (Golgi orientation) in retinal vessels, BMP9/10 Abs model; format: in vivo, mouse; conditions: BMP9/10 Abs + CDK4/6i
Description: FIG. 3C illustrates the polarity axis of each cell was defined as the angle between the direction of blood flow and the cell polarity axis, defined by a vector drawn from the center of the cell nucleus to the center of the Golgi apparatus. FIG. 3D illustrates EC polarization in arteries and veins of control, BMP9/10 Abs-treated, and BMP9/10 Abs- and CDK4/6i-treated animals. EC nuclei are immunostained with anti-ERG1,2,3 and Golgi apparatus with anti-GM130; ECs are labelled with IB4. […] FIG. 3E illustrates angular histograms showing the distribution of polarization angles of retinal ECs in arteries and veins from control, BMP9/10 Abs-treated, and BMP9/10 Abs- and CDK4/6i-treated P6 animals (N=6 to 8 retinas). FIG. 3F illustrates polarity index dot plots of ECs from arteries (A) and veins (V) from control, BMP9/10 Abs-treated, and BMP9/10 Abs- and CDK4/6i-treated P6 animals (N=6 to 8 retinas. Data are mean±SEM **p≤0.01, ns p>0.05). Two-Way ANOVA for independent measures was used. p≤0.05 was considered statistically significant. […] To analyze the orientation of the Golgi toward the direction of the flow in retinal vessels, we measured the angle formed by the vector nucleus/Golgi in each EC and the predicted blood flow vector in the vessel (as depicted in FIG. 3C). We also quantified the EC polarization using a polarity index^22 ranging from 1 (highly polarized) to 0 (random distribution).

Structure (SMILES): CC(=O)c1c(C)c2cnc(Nc3ccc(N4CCNCC4)cn3)nc2n(C2CCCC2)c1=O [Palbociclib, 6-acetyl-8-cyclopentyl-5-methyl-2-[5-(1-piperazinyl)pyridine-2-ylamino]pyrido[2,3-d]pyrimidin-7(8H)-one]
- pAKT activation induced by VEGF-A in Alk1 silenced HUVECs (VEGF-A signaling): did not detect any differences
- JAG1 protein expression in retinal arterial ECs ([1]; BMP9/10 Abs + CDK4/6i vs BMP9/10 Abs only): increased in arterial ECs
- ectopic arterial expression of ENDOMUCIN ([1]; BMP9/10 Abs + CDK4/6i): did not prevent the arterial expression of ENDOMUCIN
- smooth muscle cell (aSMA) coverage of retinal arteries ([1]; BMP9/10 Abs + CDK4/6i): prevented the loss of SMC coverage on arteries
- Rb phosphorylation [2]: induced hypo-phosphorylation of the Retinoblastoma protein (Rb)
- SMAD1/5/8 phosphorylation in response to BMP9 (BMP9 signaling): enhanced SMAD1/5/8 phosphorylation
- polarity of retinal ECs toward blood flow [3]: oriented similarly to controls
